# Read-outs that look alike come from different tables or passages of the source.
# What was measured:
# [1] = tested on: Enterococcus faecalis 3937158; experiment: microbe, parasite or virus in culture; type: cell-based
# Outline: (§1)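 Strains were cultured aerobically at 37 °C for 24 h, MRSA in cation-adjusted Mueller-Hinton broth and enterococci in BHI broth. Cultures were serially diluted and plated to set CFU/ml. MICs then came from broth microdilution, scored by resazurin reduction.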
# [2] = tested on: Enterococcus faecium 3934825; experiment: microbe, parasite or virus in culture; type: cell-based
# Outline: as §1
# [3] = tested on: intracellular MRSA 12673 strain in HEK293 cells; experiment: Intracellular antimicrobial (infection) assay; type: cell-based, Staphylococcus aureus
# Method: HEK293 (human embryonic kidney) cells were purchased form Cell Line Services (Germany). The cells were cultured in Dulbecco’s Modified Eagle’s (DMEM) medium with 4.5 g/l glucose (Sigma-Aldrich, Germany), supplemented with 10% fetal bovine serum (FBS, Sigma-Aldrich, Germany) and 1% PEN/STREP (Sigma-Aldrich, Germany). Cells were maintained in a 5% CO2 incubator at 37 °C. The original lines were checked for the presence of mycoplasma.
# HEK293 cells were seeded at a density of 1.5 × 10^5 cells/well in 24-well plates in an antibiotic-free medium (DMEM + 10% FBS) and were allowed to adhere overnight. Next, the medium was removed and overnight culture of S. aureus strain (12673) suspended in DMEM + 1% FBS (invasive medium) at a ratio of bacteria/cells 25:1 was added. To enable bacterial invasion, the cells were incubated with bacterial suspensions (37 °C, 5% CO2) for 2 h.
# After this period of time extracellular bacteria were eliminated by a 30 min incubation with 20 U/ml lysostaphin. […] The lysis of human cells was carried out with 0.2% Trition-X-100 (Sigma-Aldrich, Germany). The obtained cell lysates were serially diluted in PBS and plated on agar plates and CFU/ml was determined.
# The results are presented as the percentage of S. aureus intracellular survival after treatment in comparison to that of non-treated cells (control). The assay was performed in triplicates.
# [4] = tested on: bacterial strain not named; experiment: Raw data of the MIC measurement (absorbance); type: cell-based; conditions: concentration marked (MIC) in raw absorbance data
# Method: The strains were grown in Mueller-Hinton broth (MH cation-adjusted, Becton Dickinson) or Brain Heart Infusion broth (BHI, Becton Dickinson), respectively. The cultivation was carried out in an aerobic atmosphere at 37 °C for 24 hours and, afterwards, the bacterial cultures were diluted in geometric progression with a proper broth. Next, 100 µl of each dilution was inoculated in an agar plate and incubated at 37 °C for 24 h. The next procedures included determination of Colony Forming Units (CFU)/ml and minimal inhibitory concentration (MIC) of the compounds in question. The latter procedure was carried out according to the microbroth dilution technique using 96-well plates. The MICs were evaluated by using the metabolic assay based on the resazurin dye. The assay was performed in triplicates.
# [5] = microbroth dilution, 96-well, resazurin, 37 °C, 24 h, mean ± SD, at least three independent experiments in triplicates, listed as Van-HCl
# [6] = same test as μM value, mean ± SD
structure (smiles),measurement,setting,value
"CN[C@H](CC(C)C)C(=O)N[C@H]1C(=O)N[C@@H](CC(N)=O)C(=O)N[C@H]2C(=O)N[C@H]3C(=O)N[C@H](C(=O)N[C@H](C(=O)O)c4cc(O)cc(O)c4-c4cc3ccc4O)[C@H](O)c3ccc(c(Cl)c3)Oc3cc2cc(c3O[C@@H]2O[C@H](CO)[C@@H](O)[C@H](O)[C@H]2O[C@H]2C[C@](C)(N)[C@H](O)[C@H](C)O2)Oc2ccc(cc2Cl)[C@H]1O [Van, vancomycin, reference compound]",MIC,"[1]; Enterococcus faecalis, 3937158, 24 h, microbroth dilution, 96-well, resazurin, 37 °C, 24 h, mean ± SD, at least three independent experiments in triplicates, read-out: MIC",25 µM
same,MIC,"[1]; Enterococcus faecalis, 3937158, raw MIC, first block, test a, repetition 1, read-out: MIC1a",25 µM
same,MIC,"[1]; Enterococcus faecalis, 3937158, raw MIC, first block, test a, repetition 2, read-out: MIC2a",25 µM
same,MIC,"[1]; Enterococcus faecalis, 3937158, raw MIC, first block, test a, repetition 3, read-out: MIC3a",12.5 µM
same,MIC,"[1]; Enterococcus faecalis, 3937158, raw MIC, first block, test b, repetition 1, read-out: MIC1b",25 µM
same,MIC,"[1]; Enterococcus faecalis, 3937158, raw MIC, first block, test b, repetition 2, read-out: MIC2b",25 µM
same,MIC,"[1]; Enterococcus faecalis, 3937158, raw MIC, first block, test b, repetition 3, read-out: MIC3b",12.5 µM
same,MIC,"[1]; Enterococcus faecalis, 3937158, raw MIC, test a, repetition 1, read-out: MIC1a",37.1 µM
same,MIC,"[1]; Enterococcus faecalis, 3937158, raw MIC, test a, repetition 2, read-out: MIC2a",37.1 µM
same,MIC,"[1]; Enterococcus faecalis, 3937158, raw MIC, test a, repetition 3, read-out: MIC3a",18.6 µM
same,MIC,"[1]; Enterococcus faecalis, 3937158, raw MIC, test b, repetition 1, read-out: MIC1b",37.1 µM
same,MIC,"[1]; Enterococcus faecalis, 3937158, raw MIC, test b, repetition 2, read-out: MIC2b",37.1 µM
same,MIC,"[1]; Enterococcus faecalis, 3937158, raw MIC, test b, repetition 3, read-out: MIC3b",18.6 µM
same,MIC,[1]; [5],25.0 ± 6.5 µM
same,MIC in (μg/ml),[1]; [6],37.1 ± 9.6 µg/mL
same,MIC,"[2]; Enterococcus faecium, 3934825, 24 h, microbroth dilution, 96-well, resazurin, 37 °C, 24 h, mean ± SD, at least three independent experiments in triplicates, read-out: MIC",25 µM
same,MIC,"[2]; Enterococcus faecium, 3934825, raw MIC, first block, test a, repetition 1, read-out: MIC1a",25 µM
same,MIC,"[2]; Enterococcus faecium, 3934825, raw MIC, first block, test a, repetition 2, read-out: MIC2a",25 µM
same,MIC,"[2]; Enterococcus faecium, 3934825, raw MIC, first block, test a, repetition 3, read-out: MIC3a",12.5 µM
same,MIC,"[2]; Enterococcus faecium, 3934825, raw MIC, first block, test b, repetition 1, read-out: MIC1b",12.5 µM
same,MIC,"[2]; Enterococcus faecium, 3934825, raw MIC, first block, test b, repetition 2, read-out: MIC2b",25 µM
same,MIC,"[2]; Enterococcus faecium, 3934825, raw MIC, first block, test b, repetition 3, read-out: MIC3b",25 µM
same,MIC,"[2]; Enterococcus faecium, 3934825, raw MIC, test a, repetition 1, read-out: MIC1a",37.1 µM
same,MIC,"[2]; Enterococcus faecium, 3934825, raw MIC, test a, repetition 2, read-out: MIC2a",37.1 µM
same,MIC,"[2]; Enterococcus faecium, 3934825, raw MIC, test a, repetition 3, read-out: MIC3a",37.1 µM
same,MIC,"[2]; Enterococcus faecium, 3934825, raw MIC, test b, repetition 1, read-out: MIC1b",18.6 µM
same,MIC,"[2]; Enterococcus faecium, 3934825, raw MIC, test b, repetition 2, read-out: MIC2b",37.1 µM
same,MIC,"[2]; Enterococcus faecium, 3934825, raw MIC, test b, repetition 3, read-out: MIC3b",37.1 µM
same,MIC,[2]; [5],25.0 ± 6.5 µM
same,MIC in (μg/ml),[2]; [6],37.1 ± 7.6 µg/mL
same,percentage of S. aureus intracellular survival,"[3]; HEK293 infected 25:1 for 2 h, lysostaphin 20 U/ml 30 min, compound 25 µM for 24 h, CFU/ml of lysates vs non-treated cells, triplicates, Fig. 2",~95%
same,intracellular MRSA killed (bacterial killing rate),"[3]; MRSA-infected HEK293 cells, 25 µM, 24 h",5%
same,MIC,[4],3.13 µM

# From paper PMC6397271 (Scientific Reports, 2019)
